The values below come from US20080119513A1, “Sulfonamide Derivative Selectively Inhibiting Mmp-13” (priority 2004, published 2008).

One may read the IC50 as the concentration at which inhibition is half-maximal.

The target in one assay is T1, MMP-8 (Homo sapiens, UniProt P22894).
T1 construct: In regard to MMP-8, catalytic domain (^99Phe˜^262Gly) was amplified with PCR; His-tag; enterokinase digestion-site
Briefly: Assay for inhibitory activities on MMPs (fluorogenic peptide substrate), MMP-8. It counts as biochemical. The essentials: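 Human MMP-8 catalytic domain (Phe99–Gly262), His-tagged, E. coli-expressed, urea-solubilised, refolded. Fluorogenic substrate MOCAc-Pro-Leu-Gly-Leu-A2Pr(DNP)-Ala-Arg-NH2; fluorescence read with enzyme/inhibitor, substrate/inhibitor, enzyme-only and substrate-only wells. % inhibition = {1-(A−B)/(C−D)}×100; IC50 is concentration giving 50% inhibition.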

Another assay deals with T2, MMP-2 (Homo sapiens, UniProt P08253).
T2 sequence (P08253 110-660): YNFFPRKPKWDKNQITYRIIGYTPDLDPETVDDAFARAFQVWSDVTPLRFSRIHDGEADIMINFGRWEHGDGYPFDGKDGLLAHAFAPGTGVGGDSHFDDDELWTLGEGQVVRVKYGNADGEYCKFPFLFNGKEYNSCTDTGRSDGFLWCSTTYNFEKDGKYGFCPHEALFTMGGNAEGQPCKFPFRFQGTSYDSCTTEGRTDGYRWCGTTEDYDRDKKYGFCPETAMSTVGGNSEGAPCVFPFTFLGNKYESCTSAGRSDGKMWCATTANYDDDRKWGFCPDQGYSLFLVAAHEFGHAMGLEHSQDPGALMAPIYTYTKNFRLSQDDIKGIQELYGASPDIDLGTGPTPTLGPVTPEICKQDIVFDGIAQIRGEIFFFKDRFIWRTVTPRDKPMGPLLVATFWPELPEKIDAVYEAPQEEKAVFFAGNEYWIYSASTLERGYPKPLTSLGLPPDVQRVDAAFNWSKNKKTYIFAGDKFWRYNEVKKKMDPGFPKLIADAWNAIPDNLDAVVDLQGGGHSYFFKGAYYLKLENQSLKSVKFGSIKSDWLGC
Briefly: Assay for inhibitory activities on MMPs (fluorogenic peptide substrate), MMP-2. It counts as biochemical. Put shortly:
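Human MMP-2 activity measured with fluorogenic MOCAc-Pro-Leu-Gly-Leu-A2Pr(DNP)-Ala-Arg-NH2 substrate. Percent inhibition derived from fluorescence with and without enzyme and inhibitor, corrected for substrate and inhibitor background. IC50 taken as concentration giving 50% inhibition.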

In the next assay the target is MMP-9 (Homo sapiens, UniProt P14780). Briefly: Assay for inhibitory activities on MMPs (fluorogenic peptide substrate), MMP-9. It counts as biochemical. Put shortly: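 ProMMP-9 purified from TPA-stimulated HT1080 cells and activated with TPCK-trypsin, assayed with fluorogenic MOCAc-Pro-Leu-Gly-Leu-A2Pr(DNP)-Ala-Arg-NH2. Percent inhibition from fluorescence of reactions with and without enzyme and inhibitor; IC50 as concentration giving 50% inhibition.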

The next assay deals with T3, MMP-12 (Homo sapiens, UniProt P39900).
T3 construct: In regard to MMP-12, catalytic domain (^100Phe˜^263Gly) was amplified with RT-PCR; His-tag; enterokinase digestion-site
Briefly: Assay for inhibitory activities on MMPs (fluorogenic peptide substrate), MMP-12. In kind it is biochemical. Put shortly: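 Refolded His-tagged human MMP-12 catalytic domain (Phe100–Gly263) expressed in E. coli, assayed with fluorogenic substrate MOCAc-Pro-Leu-Gly-Leu-A2Pr(DNP)-Ala-Arg-NH2. Percent inhibition calculated from fluorescence with and without enzyme and inhibitor, corrected for inhibitor-only and substrate-only blanks; IC50 is concentration giving 50% inhibition.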

The test system of another assay is Rat osteoarthritis model. Briefly: Inhibition of disease progression in the rat osteoarthritis model. In kind it is in vivo. The settings on record: female SD rats, medial meniscectomy and collateral ligament transection; 10 mg/kg orally twice daily for 6 weeks. As for the experimental part:
Rat osteoarthritis model was prepared according to the procedure reported by Meacock et al. (J. Exp. Path. 71, 279-293, 1990), by medial meniscectomy and collateral ligament transection on the right knee of 12 weeks old female SD rats (Charles River Japan). 0.5% methylcellulose or compounds (II-3) or (III-11) (10 mg/kg) were orally administered twice daily from the following day of the surgery for 6 weeks.
On the next day of final administration, tibial plateaus were removed. The surfaces of the tibial plateau were stained with India ink (Kuretake), and then photographed using a digital camera (Nikon). The progressive level of OA lesion was scored using a photographic image thereof.

MMP-9, sequence (P14780 107-707): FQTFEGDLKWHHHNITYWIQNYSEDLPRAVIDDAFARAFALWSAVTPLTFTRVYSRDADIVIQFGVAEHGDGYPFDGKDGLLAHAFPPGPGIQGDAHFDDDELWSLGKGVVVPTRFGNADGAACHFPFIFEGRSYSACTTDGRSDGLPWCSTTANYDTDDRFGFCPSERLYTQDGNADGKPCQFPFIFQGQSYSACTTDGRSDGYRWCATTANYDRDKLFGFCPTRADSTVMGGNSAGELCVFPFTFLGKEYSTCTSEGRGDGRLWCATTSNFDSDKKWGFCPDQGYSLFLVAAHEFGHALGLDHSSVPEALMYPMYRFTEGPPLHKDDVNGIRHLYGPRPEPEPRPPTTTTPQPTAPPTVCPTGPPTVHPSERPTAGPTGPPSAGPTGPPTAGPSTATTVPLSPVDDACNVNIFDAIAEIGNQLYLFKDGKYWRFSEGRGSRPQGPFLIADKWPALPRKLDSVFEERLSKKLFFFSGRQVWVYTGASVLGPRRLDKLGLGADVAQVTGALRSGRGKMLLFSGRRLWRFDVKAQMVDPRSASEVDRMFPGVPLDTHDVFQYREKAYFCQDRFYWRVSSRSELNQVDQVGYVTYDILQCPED
T3 sequence (P39900 100-263): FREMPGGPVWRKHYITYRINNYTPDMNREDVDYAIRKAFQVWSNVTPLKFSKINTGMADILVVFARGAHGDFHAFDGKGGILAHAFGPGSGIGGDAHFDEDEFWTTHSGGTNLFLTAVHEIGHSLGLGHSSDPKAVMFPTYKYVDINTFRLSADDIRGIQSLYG
T1 sequence (P22894 99-262): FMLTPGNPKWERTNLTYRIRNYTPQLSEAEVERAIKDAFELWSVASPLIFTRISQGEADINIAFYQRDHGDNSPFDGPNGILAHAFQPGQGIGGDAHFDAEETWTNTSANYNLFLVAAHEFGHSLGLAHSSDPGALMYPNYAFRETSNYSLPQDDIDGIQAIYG

Take `O=C(O)[C@@H](Cc1ccccc1)NS(=O)(=O)c1ccc(-c2ccc(C#Cc3ccc4ccccc4c3)cc2)cc1` [III-11]: the IC50 against MMP-8 is 128 nM; at MMP-2 it was 163 nM; at MMP-9 it was above 10000 nM; on MMP-12 it was 2000 nM. Further, in the assay with Rat osteoarthritis model, the “inhibitory activities (progressive level of OA lesion, scored)” value turned out to be 77.2%.
